# Results: US12083115B2, “Methods for treating neurological symptoms associated with lysosomal storage diseases” (Genzyme Corporation, priority 2020, dated 2024)
# Key:
# [1] = system: GM3 expression in B16 mouse melanoma cells; assay: GM3 fluorescent-linked immunosorbent assay (FLISA), B16; format: cell-based; conditions: 48 hours
# Excerpt: Inhibition of glucosylceramide synthase activity can be measured with one or more assays. A first assay is a microsomal assay that directly measures the conversion of ceramide to glucosylceramide by HPLC. Microsomes are a source of glucosylceramide synthase activity in the microsomal assay. A second assay is a cell based, phenotypic assay that monitors cell surface expression of the downstream lipid GM3 by antibody mediated immunofluorescence. Specific protocols are provided below.
# This is a phenotypic assay that measures GM3 expression in B16 mouse melanoma or C32 human melanoma cells following treatment with test compounds. Cell surface GM3 expression is determined by antibody mediated fluorescence.
# Compounds are diluted in media and plated in 384 well plates in DMSO. B16 and C32 cells are assayed at densities of 20,000 cells/ml and 62,500 cells/ml, respectively, per well. Each titration curve contains 10 points that are assayed in duplicate on each test run. The plates are incubated for 48 hours at 37° C., 5% CO2, and are then washed once with TBS. Anti-GM3 antibody is added to each well and the plates are then incubated for an additional one hour at room temperature. Plates are subsequently washed twice and incubated for an additional hour with the labeled secondary antibody. Following the final incubation, the plates are washed twice and the fluorescence at λex=D640/20 nm and λem=657 nm is detected on a fluorescent reader.
# The results of the microsomal assays are expressed as “GCS IC50,” which represents the concentration of the compound causing 50% inhibition of glucosylceramide synthase activity. The results of the cell-based assays are expressed as “GM3 B16 IC50” or “GM3 C32 IC50” for the B16 assay and the C32 assay, respectively. These values represent the concentration of the compound causing 50% inhibition of GM3 expression on the cell surface.
# [2] = system: adult patients with Gaucher disease Type 3; assay: Clinical study in GD-3 patients: vMRI brain tissue volume (TBM analysis); format: in vivo, human; conditions: for Group A mean change in volume from Baseline to Week 52: Group A (eight patients), 15 mg/day + imiglucerase; for Patient 5 change in volume from Baseline to Week 52: Patient 5 (Compound 2 below LLOQ after 52 weeks)
# Excerpt: Neurological function was further evaluated using volumetric magnetic resonance imaging (vMRI). The vMRI data was collected at screening sessions at baseline and after 52 weeks of the treatment regime for eight patients (“Group A”) and an additional isolated patient (Patient 5). Group A corresponds to the eleven patients described above, excluding Patient 5 and two other patients lacking analyzable vMRI data.
# vMRI data was obtained and subsequently analyzed using FreeSurfer anatomic parcellation and a Tensor-Based Morphometry (TBM) analysis cycle. FreeSurfer is an opensource software package for the analysis and visualization of structural and functional neuroimaging data developed by the Laboratory for Computational Neuroimaging. TBM analysis (also known as Jacobian Integration) consists in estimating the volume changes as captured within the deformation fields resulting from applying a symmetric deformable registration technique between a pair of MR scans (baseline and follow-up), using a non-linear symmetric log-demons deformation technique using robust cross-correlation metric to ensure invertibility of the transformation (symmetric process). The deformation field is then analyzed by computing the determinant of its Jacobian matrix, which is a measure of local volume change. An integration of the determinant over a region of interest provides an estimation of the change rate of the volume of this brain region over time.
# The overall pipeline takes as input a baseline (BL) and a follow-up (FU) image and consists of the following steps: • 1. Preprocessing and reformatting; • 2. Segmentation of baseline (BL) and follow-up (FU) using FreeSurfer; • 3. Multi-resolution rigid and affine registration of FU and BL to midspace; • 4. Symmetric deformable nonlinear registration between FU and BL; • 5. Jacobian image computation; • 6. Voxel-wise volume change computation; • 7. Region-wise volume change integration; and • 8. Output for the changes for regions of interest specified for the study.
# [3] = Study 1 Part 2: PK with and without a high-fat meal; format: in vivo, human; conditions: 5 mg single dose
# Excerpt: Study 1 was a 2-part single-center trial in healthy adult male volunteers.
# After a 7-day washout period, participants were crossed over to the other condition.
# [4] = system: plasma GM3 (GM3 ganglioside); assay: Study 2: plasma GM3 pharmacodynamics; format: in vivo, human
# Protocol: The study enrolled and randomized 36 healthy adults (19 men and 17 women) (n=9 each to group).
# Pharmacodynamic endpoints (plasma GL-1, GL-3, and GM3 concentrations) were assessed on Days 1-5, 8, 11, 13, and 14, at 0 hours […]; and on Day 15, at 24 hours after the Day 14 dose.
# [5] = system: healthy, human volunteers; assay: Phase 1 studies: safety profile; format: in vivo
# Protocol: Compound 2 is also known as venglustat.
# In all studies, safety profile was assessed by monitoring treatment-emergent adverse events (TEAEs) through 10 days after last dose of study medication, including serious adverse events [SAEs]), ECG monitoring, laboratory values, and physical examinations.
# [6] = system: adult patients with Gaucher disease Type 3; assay: Clinical study in GD-3 patients: ataxia, SARA scale; format: in vivo, human; set-up: key to SARA Cumulative Score, Average Score excluding Patient 4 / SARA Cumulative Score / SARA Cumulative Score, Average Score: SARA, eight ataxia attributes summed, 0-40 scale; conditions: for SARA Cumulative Score: 15 mg/day + imiglucerase; for SARA Cumulative Score, Average Score: screening 2.83
smiles,measurement,setting,value
"CC(C)(NC(=O)O[C@@H]1CN2CCC1CC2)c1csc(-c2ccc(F)cc2)n1 [Compound 2, (S)-quinuclidin-3-yl 2-(2-(4-fluorophenyl)thiazol-4-yl)propan-2-ylcarbamate]",IC50,[1],107 µM
same,whole brain tissue volume,"[2]; Group A, 52 weeks, FIG. 1",overall increase in whole brain tissue volume
same,Group A mean change in volume from Baseline to Week 52,[2]; Left Cuneus,+37.16 mm^3
same,Patient 5 change in volume from Baseline to Week 52,[2]; Left Cuneus,−23.9 mm^3
same,Group A mean change in volume from Baseline to Week 52,[2]; Left Entorhinal Cortex,+34.53 mm^3
same,Patient 5 change in volume from Baseline to Week 52,[2]; Left Entorhinal Cortex,+41.4 mm^3
same,Group A mean change in volume from Baseline to Week 52,[2]; Left Lingual,+50.08 mm^3
same,Patient 5 change in volume from Baseline to Week 52,[2]; Left Lingual,−60.0 mm^3
same,Group A mean change in volume from Baseline to Week 52,[2]; Left Pericalcarine Lobe,+18.46 mm^3
same,Patient 5 change in volume from Baseline to Week 52,[2]; Left Pericalcarine Lobe,−29.2 mm^3
same,Group A mean change in volume from Baseline to Week 52,[2]; Left Putamen,+94.70 mm^3
same,Patient 5 change in volume from Baseline to Week 52,[2]; Left Putamen,−51.7 mm^3
same,whole brain volume,"[2]; Patient 5 (did not successfully undergo the treatment regime), 52 weeks, FIG. 1",decrease in whole brain volume
same,Group A mean change in volume from Baseline to Week 52,[2]; Right Accumbens Area,+12.86 mm^3
same,Patient 5 change in volume from Baseline to Week 52,[2]; Right Accumbens Area,−52.1 mm^3
same,Group A mean change in volume from Baseline to Week 52,[2]; Right Amygdala,+60.78 mm^3
same,Patient 5 change in volume from Baseline to Week 52,[2]; Right Amygdala,−63.4 mm^3
same,Group A mean change in volume from Baseline to Week 52,[2]; Right Postcentral Lobe,+91.66 mm^3
same,Patient 5 change in volume from Baseline to Week 52,[2]; Right Postcentral Lobe,−63.4 mm^3
same,Group A mean change in volume from Baseline to Week 52,[2]; Right Putamen,+97.84 mm^3
same,Patient 5 change in volume from Baseline to Week 52,[2]; Right Putamen,−63.1 mm^3
same,effect of a high-fat meal on Compound 2 exposure,[3]; high-fat meal compared with fasting,no effect
same,Tmax,"[3]; male, human, plasma, oral, whether fed or fasting, read-out: Median tmax",6 h
same,"Mean plasma GM3 level, % of baseline","[4]; Day 15, 5-mg dose group",42.7 % of baseline
same,"Mean plasma GM3 level, % of baseline","[4]; Day 15, 10-mg dose group",49.4 % of baseline
same,subjects with GM3 below the LLOQ,"[4]; Day 15, 10-mg dose group",1 subjects
same,"Mean plasma GM3 level, % of baseline","[4]; Day 15, 20-mg dose group",57.8 % of baseline
same,subjects with GM3 below the LLOQ,"[4]; Day 15, 20-mg dose group",2 subjects
same,start day of maximal sustained GM3 decreases,[4]; all Compound 2 dose groups,13 days
same,Vital signs,[5]; all Phase 1 studies,no relevant changes from baseline
same,hematologic or biochemical abnormalities,[5]; all Phase 1 studies,No clinically relevant hematologic or biochemical abnormalities
same,"deaths, SAEs, severe TEAEs, TEAEs leading to study discontinuation","[5]; all Phase 1 studies, through 10 days after last dose","no deaths, SAEs, severe TEAEs, or TEAEs leading to study discontinuation"
same,ECG parameters,"[5]; single ascending dose and food effect studies, multiple dose study: no statistically significant change versus placebo",no relevant changes
same,patients with positive correlation between reduction in CSF GL-1 and SARA score,"[6]; 52 weeks, 11 patients",8 of 11
same,patients showing improvements in ataxia,"[6]; 52 weeks, N = 6, 15 mg/day + imiglucerase",5 of 6
same,SARA Cumulative Score,"[6]; Patient 1, Week 26, screening 3.0",1.0
same,SARA Cumulative Score,"[6]; Patient 2, Week 26, screening 3.0",2.0
same,SARA Cumulative Score,"[6]; Patient 2, Week 52, screening 3.0",1.5
same,SARA Cumulative Score,"[6]; Patient 3, Week 26, screening 3.5",0.0
same,SARA Cumulative Score,"[6]; Patient 3, Week 52, screening 3.5",0.0
same,SARA stance score,"[6]; Patient 4, Week 26 (baseline 1)",1
same,SARA Cumulative Score,"[6]; Patient 4, Week 26, screening 3.0",5.0
same,SARA stance score,"[6]; Patient 4, Week 52 (baseline 1; left knee pain, injured toe)",5
same,SARA Cumulative Score,"[6]; Patient 6, Week 26, screening 4.0",2.0
same,SARA Cumulative Score,"[6]; Patient 6, Week 52, screening 4.0",3.0
same,SARA Cumulative Score,"[6]; Patient 7, Week 26, screening 5.5",7.5
same,SARA Cumulative Score,"[6]; Patient 7, Week 52, screening 5.5",5.0
same,SARA Cumulative Score,"[6]; Patient 8, Week 26, screening 2.0",0.5
same,SARA Cumulative Score,"[6]; Patient 8, Week 52, screening 2.0",0
same,SARA Cumulative Score,"[6]; Patient 9, Week 26, screening 0.0",0.0
same,SARA Cumulative Score,"[6]; Patient 9, Week 52, screening 0.0",0.0
same,SARA Cumulative Score,"[6]; Patient 10, Week 26, screening 2.0",2.0
same,SARA Cumulative Score,"[6]; Patient 10, Week 52, screening 2.0",1.0
same,SARA Cumulative Score,"[6]; Patient 11, Week 26, screening 3.0",3.0
same,SARA Cumulative Score,"[6]; Patient 11, Week 52, screening 3.0",2.0
same,"SARA Cumulative Score, Average Score","[6]; Patients 1-6, Week 26",1.67
same,"SARA Cumulative Score, Average Score","[6]; Patients 1-6, Week 52",2.00
same,"SARA Cumulative Score, Average Score excluding Patient 4","[6]; Week 26, screening 2.80",1.00
same,patients exhibiting an improvement in ataxia,"[6]; Week 52, Excluding Patient 5",4 out of 5
same,patients exhibiting an improvement in ataxia,"[6]; Week 52, five new patients excluding Patient 9",4 out of 4
same,gait on videotaped straight-line walk,"[6]; two patients, week 26 and week 52 compared to baseline","steadier, better coordinated, and faster gait"
